According to patent US20240294572A1, “Antimicrobial Peptides” (priority 2021, published 2024):
Converted amounts (≈) assume the structure as drawn. Like-named read-outs stand apart in the source and are kept apart here. Non-standard residues stand in square brackets, D forms with d. Residues, ends and D or L forms follow the SMILES beside them. *: point of attachment. Decanoyl = CCCCCCCCCC(=O)*

How the values were obtained:
[1] = test system: human red blood cells (hRBCs); type: cell-based
In short: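 Saline-washed human erythrocytes at 2% (v/v) incubated with peptides at various concentrations, 37° C, 1 hour. Haemoglobin release read at 545 nm in supernatant after centrifugation; 1% Triton X-100 = 100% lysis, PBS = 0%. HC50 is the peptide concentration giving 50% lysis; CSI = HC50/MIC against MRSA.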

[2] = test system: S. aureus Newman; type: cell-based
In short: (§1)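 Broth microdilution per CLSI M07-A10 with minor changes: 2-fold peptide dilutions plus log-phase bacteria (OD600 ~0.5) diluted to 0.001 OD, in TSB. Incubated overnight at 37 °C; growth read at 630 nm.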

[3] = test system: S. aureus Mu50; type: cell-based
In short: as §1

[4] = test system: S. aureus USA200; type: cell-based
In short: as §1

[5] = test system: S. aureus USA400; type: cell-based
In short: as §1

[6] = test system: S. aureus USA300 LAC; type: cell-based
In short: (§2)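 Broth microdilution after CLSI M07-A10, modified: 2-fold peptide dilutions plus log-phase bacteria diluted to 0.001 OD, incubated overnight at 37° C, absorbance read at 630 nm. Medium effects probed with varied pH, NaCl or human serum in TSB (control pH 7.4), with 10%, 50%, 100% TSB, and with MHB.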

[7] = test system: E. coli ATCC 25922; type: cell-based
In short: as §2

[8] = test system: Klebsiella pneumonia ATCC 13883; test: Antibacterial broth microdilution MIC; type: cell-based
In short: as §1

[9] = test system: trypsin, chymotrypsin, pancreas elastase, S. aureus V8 protease, and fungal proteinase K
Description: The peptide was incubated with various proteases in 10 mM PBS buffer (pH 7.4) at 37° C. for 24 hours. Aliquots (20 μL) of the reaction solutions were taken at 3 and 24 hours. The reaction was then stopped by mixing with 20 μL of 2×SDS loading buffer and boiling in a water bath for ˜10 minutes. For the SDS-PAGE analysis, 10 μL of each sample was loaded to the well of a 5% stacking/18% resolving tricine gel and run at a constant current of 35 mA. The gels were stained using Coomassie Brilliant Blue.

[10] = test system: S. aureus USA300 transposon mutant SAUSA300_1036; type: cell-based
Description: (§3) The antimicrobial susceptibility of over 20 MRSA transposon mutants were also tested, based on a transposon library screening, in the presence of LL-37 peptides (Golla, et al. (2020) ACS Infect. Dis., 6:1866-1881). This Nebraska Transposon Mutant Library of S. aureus USA300 consists of 1920 mutants, each with one nonessential gene disabled due to a transposon insertion (Fey, et al. (2013) mBio 4:e00537-12). The correct insertion of the transposon to each Staph mutant had been verified (Golla, et al. (2020) ACS Infect. Dis., 6:1866-1881). Antimicrobial susceptibility to the new peptide C10-KR8d was evaluated in the same manner as MIC assays. Susceptible strains could be inhibited at a peptide concentration lower than the MIC against the wild strain S. aureus JE2.

[11] = test system: S. aureus JE2 (SAUSA300, wild type); type: cell-based; conditions: JE2 (SA, wild type)
Description: as §3

[12] = test system: S. aureus USA300 transposon mutant SAUSA300_1962; type: cell-based
Description: as §3

[13] = test system: S. aureus USA300 transposon mutant SAUSA300_1228 (thrB); type: cell-based
Description: as §3

[14] = test system: S. aureus USA300 transposon mutant SAUSA300_1515; type: cell-based
Description: as §3

[15] = test system: S. aureus USA300 transposon mutant SAUSA300_0647 (vraF); type: cell-based
Description: as §3

SMILES: CCCCCCCCCC(=O)N[C@@H](CCCCN)C(=O)N[C@@H](CCCNC(=N)N)C(=O)N[C@H](C(=O)N[C@@H](Cc1c[nH]c2ccccc12)C(=O)N[C@@H](CCC(N)=O)C(=O)N[C@@H](CCCNC(=N)N)C(=O)N[C@H](C(=O)N[C@@H](CCCCN)C(N)=O)[C@@H](C)CC)[C@@H](C)CC [Peptide C10-KR8] (Decanoyl-KRIWQRIK-NH2)
- HC50 [1]: 300 µM
- Minimal inhibitory concentration, Newman [2]: 3.1 µM (≈ 3.97 µg/mL)
- Minimal inhibitory concentration, Mu50 [3]: 3.1 µM (≈ 3.97 µg/mL)
- Minimal inhibitory concentration, USA200 [4]: 3.1 µM (≈ 3.97 µg/mL)
- Minimal inhibitory concentration, USA400 [5]: 3.1 µM (≈ 3.97 µg/mL)
- MIC in the presence of 5 or 10% human serum ([6]; 5 or 10% human serum): > 25 µM
- MIC (μM) SA ([6]; USA300): 1.5 to 3.1 µM
- Minimal inhibitory concentration (MIC), pH = 6.8 ([6]; USA300, pH 6.8): 3.1-6.2 μM
- MIC (μM) EC [7]: 12.5 µM (≈ 16 µg/mL)
- MIC (μM) KP [8]: 50 µM (≈ 64 µg/mL)
- time to degradation by proteases ([9]; nearly all the cases, except for S. aureus V8 protease, 37° C., PBS pH 7.4): ≤ 3 h

SMILES: CCCCCCCCCC(=O)N[C@H](CCCCN)C(=O)N[C@H](CCCNC(=N)N)C(=O)N[C@@H](C(=O)N[C@H](Cc1c[nH]c2ccccc12)C(=O)N[C@H](CCC(N)=O)C(=O)N[C@H](CCCNC(=N)N)C(=O)N[C@@H](C(=O)N[C@H](CCCCN)C(N)=O)[C@H](C)CC)[C@H](C)CC [Peptide C10-KR8d] (Decanoyl-[dK][dR][dI][dW][dQ][dR][dI][dK]-NH2)
- HC50 ([1]; red cells of human, 1 h): 300 µM
- MIC ([10]; mutant SAUSA300_1036, 50% TSB): 1.6 to 3.1 µM
- Susceptible? ([10]; mutant SAUSA300_1036 versus WT): Yes
- MIC [11]: 3.1 µM (≈ 3.97 µg/mL)
- MIC ([12]; mutant SAUSA300_1962, 50% TSB): 1.6 to 3.1 µM
- Susceptible? ([12]; mutant SAUSA300_1962 versus WT): Yes
- Susceptible? ([13]; mutant SAUSA300_1228 thrB versus WT): Yes
- MIC ([13]; mutant SAUSA300_1228 thrB, 50% TSB): 1.6 to 3.1 µM
- MIC ([14]; mutant SAUSA300_1515, 50% TSB): 1.6 to 3.1 µM
- Susceptible? ([14]; mutant SAUSA300_1515 versus WT): Yes
- Susceptible? ([15]; mutant SAUSA300_0647 vraF versus WT): Yes
- MIC ([15]; mutant SAUSA300_0647 vraF, 50% TSB): 1.6 to 3.1 µM
- Minimal inhibitory concentration, Newman [2]: 1.6 µM (≈ 2.05 µg/mL)
- Minimal inhibitory concentration, Mu50 [3]: 3.1 µM (≈ 3.97 µg/mL)
- Minimal inhibitory concentration, USA200 [4]: 1.6 µM (≈ 2.05 µg/mL)
- Minimal inhibitory concentration, USA400 [5]: 1.6 µM (≈ 2.05 µg/mL)
- reduction of anti-MRSA activity ([6]; 10% serum, pH 7.4): 2 fold
- MIC (μM) SA ([6]; USA300): 1.5 to 3.1 µM
- MIC values (Table 4, text summary) ([6]; USA300): 3.1 to 6.2 µM
- MIC (μM) EC [7]: 12.5 µM (≈ 16 µg/mL)
- Minimal inhibitory concentration against E. coli, 100% TSB [7]: 6.2 µM (≈ 7.94 µg/mL)
- MIC (μM) KP [8]: 25 µM (≈ 32 µg/mL)
- stability to five proteases ([9]; trypsin, chymotrypsin, pancreas elastase, S. aureus V8 protease, fungal proteinase K, 3 and 24 hours): resistant to the five proteases
